{"source": "patent US20080199423A1", "about": "“Methods of Using Apo2l Receptor Agonists and Ink Cell Activators” (GENENTECH, INC., priority 2004, published 2008)", "key": {"[1]": {"tested_on": "4T1 cells", "assay": "51Cr release cytotoxicity assay, purified human NK cells on 4T1 target cells", "type": "cell-based, mouse", "conditions": "NK cells treated for 18 hours with agent; 4 hour incubation; E:T 1:1 to 50:1", "protocol": "4T1 cells (a metastatic mammary carcinoma cell line derived from BALE/C mice, obtained from Fred Miller, Karmanos Cancer Institute) were assayed in an in vitro cytotoxicity assay to examine tumoricical effects of various Toll receptor (“TLR”) activators and NK cells. The 4T1 target cells were cultured in IDMEM medium supplemented with 10% FCS, glutamine and penicillin/streptomycin, labeled with 100 mCi ^51Cr for 1 hour at 37° C. and then washed three times with culture medium.\nTo prepare purified effector NK cells for the assay, PBMCs from healthy human donors were isolated by standard density-gradient centrifugation over Ficoll-Paque Plus (Pharmacia). CD3 positive cells were first depleted using anti-CD3 microbeads (obtained from Miltenyi), and then the NK cells were purified using anti-CD56 microbeads (Miltenyi). The purity of the NK cell preparation was 95% or higher as determined by staining with mouse anti-human CD56 PE and mouse anti-human CD14 PE conjugates (BD Biosciences). The isolated cells were cultured in RPMI 1640 supplemented with heat inactivated 10% FCS, penicillin, streptomycin, 10 mM sodium pyruvate, 2 mM L-glutamine and 10 mM HEPES.\n10^4 of the labeled 4T1 cells were added to varying numbers of purified NK cells (either untreated control NK cells or NK cells treated with specific agent) at ratios of 1:1, 3:1, 6:1, 12:1, 25:1, and 50:1, respectively. NK cells were treated for 18 hours with one of the following TLR activating agents: sBLP (1 μg/ml, Bachem); poly(I:C) (50 μg/ml, Pharmacia); E. coli 055:B5 LPS (phenol extracted, 1 μg/ml, Sigma); Flagellin (1 μg/ml, A. Gewirtz, Emory Univerity); R-848 (5 μg/ml, Invivogen); CpG oligonucleotides (2006 and 2216, 5 μM, Invivogen). The cytotoxicity assays were performed in round bottom 96 well plates, and the samples were incubated in duplicate wells for 4 hours at 37° C., 5% CO2. RPMI 1640 supplemented with heat inactivated 10% FCS, penicillin, streptomycin, 10 mM sodium pyruvate, 2 mM L-glutamine and 10 mM HEPES was used during incubation.\nAfter the 4 hour incubation, supernatants were aspirated from the wells and examined for ^51Cr release using a Gamma counter. The percent specific lysis was calculated as 100× (experimental cpm-spontaneous cpm)/(total cpm-spontaneous cpm). The data are representative of at least three experiments and <5% SD was observed.\nA cytotoxicity assay was performed as described in Example 1, except for the following modifications. Purified NK cells were treated with poly(I:C) or R-848 overnight and incubated with 4T1 cells. The role of TNF-alpha, FasL, and Apo2L/TRAIL was evaluated by preincubation of the NK cells with neutralizing antibodies to the respective ligands. The following neutralizing antibodies were added at final concentration of 2 μg/ml: anti-Fas-L (mIgG2b, R&D Systems), anti-TNF-alpha (mIgG1, Genentech), and anti-Apo2L/TRAIL (5C2, mIgG2a, ATCC HB-12258 and 1D1, mIgG2b; ATCC HB-12257). Isotype control antibodies were obtained from BD Biosciences.\n(§1) For the cytotoxicity assays, target cells were labeled with 100 mCi ^51Cr for 1 hour at 37° C. and then washed 3 times before use. 10^4 target cells were added to varying numbers of effector cells at the indicated ratios and incubated in duplicate wells for 4 hours at 37° C., 5% CO2, and supernatants were used to determine ^51Cr released using a Gamma counter. The cytotoxicity assays were performed in round bottom 96 well plates and the percent specific lysis was calculated as 100× (experimental cpm-spontaneous cpm)/(total cpm-spontaneous cpm). The role of Apo2L/TRAIL expressed by NK cells in the lysis of target cells was evaluated using anti-Apo2L/TRAIL mAbs (5C2 and 1D1, Genentech, Inc.). Isotype control antibodies were obtained from BD Biosciences."}, "[2]": {"tested_on": "Apo2L/TRAIL mRNA in NK cells", "assay": "RT-QPCR of Apo2L/TRAIL message in treated NK cells", "type": "cell-based, human", "conditions": "NK cells treated 18 hours; normalized to RPL19", "protocol": "In another experiment, the purified NK cells were treated for 18 hours in RPMI 1640 supplemented with heat inactivated 10% FCS, penicillin, streptomycin, 10 mM sodium pyruvate, 2 mM L-glutamine and 10 mM HEPES with poly(I:C) (50 μg/ml), R-848 (5 μg/ml) or hIFN-alpha (1000 U/ml, Sigma) in the presence or absence of 10 μg/ml cycloheximide and Apo2L/TRAIL was measured in the extracted RNA. RT-PCR was performed and the amount of cDNA was quantitated by RT-QPCR analysis, normalized to RPL19, and fold induction over control is shown in FIG. 2A. Primers were designed as per instructions (Primer Express) and sequences are: hRPL19-probe: […] (SEQ ID NO:7); hRPL19-For: […] (SEQ ID NO:8); hRPL19-Rev: […] (SEQ ID NO:9); hApo2L-probe: […] (SEQ ID NO:10); hApo2L-For: […] (SEQ ID NO:11); hApo2L-Rev: […] (SEQ ID NO:12). cDNA was analyzed for expression of RPL19 and Apo2L/TRAIL by RT-QPCR (Applied Biosystems) as described in Zarember et al., J. Immunol., 168(2):554-61 (2002). Fold increase values are expressed as arbitrary units, relative to the calibrator gene RPL19."}, "[3]": {"tested_on": "Apo2L/TRAIL protein in NK cells", "assay": "Quantitative ELISA of Apo2L/TRAIL protein in NK cell lysates or supernatants", "type": "cell-based, human", "conditions": "stimulated NK cells", "protocol": "Resting and poly(I:C) stimulated NK cell lysates or their culture supernatants were assessed for the presence of Apo2L/TRAIL protein by quantitative ELISA (kit, BD Biosciences). To confirm Apo2L/TRAIL protein expression was increased following activation of NK cells with poly(I:C) or R848, an ELISA was performed."}, "[4]": {"tested_on": "B16BL10 melanoma cells", "assay": "51Cr release cytotoxicity assay on B16 melanoma target cells", "type": "cell-based, mouse", "conditions": "NK cells stimulated with agent", "protocol": "(§2) Purified NK cells were treated with poly(I:C) or R-848 and incubated with B16BL10 melanoma cells (ATCC) at the indicated ratios. Purified NK cells stimulated with R-848 were incubated with HCT116 target cells (ATCC) at the indicated ratios. The role of Apo2L/TRAIL in lysis assays in panels B and C was determined by preincubation with neutralizing (5C2) and non-neutralizing (1D1) anti-Apo2L/TRAIL mAbs. The data has been confirmed with NK cells from at least 3 donors and less that 5% SD was observed.\nas §1"}, "[5]": {"tested_on": "HCT116 cells", "assay": "51Cr release cytotoxicity assay on HCT116 target cells", "type": "cell-based", "conditions": "NK cells stimulated with agent", "protocol": "as §2, §1"}}}
{"substance": "poly(I:C)", "values": [{"measurement": "Lysis of 4T1 cells by NK cells treated with TLR activating agent", "setting": "[1]", "value": "efficiently lysed"}, {"measurement": "Increase of Apo2L/TRAIL mRNA over control", "setting": "[2]", "value": 26, "unit": "fold"}, {"measurement": "Apo2L/TRAIL protein in NK cell lysates", "setting": "[3]", "value": "present in a cell-associated form"}, {"measurement": "Apo2L/TRAIL released into supernatants", "setting": "[3]", "value": "No significant levels"}, {"measurement": "Killing of B16 melanoma cells by stimulated NK cells", "setting": "[4]", "value": "efficiently killed"}, {"measurement": "Cytotoxicity of stimulated NK cells towards HCT116 cells", "setting": "[5]", "value": "increased cytoxicity"}]}
